{
  "source": "patent US20240009239A1",
  "about": "“THERAPEUTIC TARGETING OF MESOTHELIN IN ACUTE MYELOID LEUKEMIA WITH CHIMERIC ANTIGEN RECEPTOR T CELL THERAPY” (FRED HUTCHINSON CANCER CENTER, priority 2020, published 2024)",
  "key": {"[1]": {"test_system": "ADAM17-mediated MSLN shedding", "test": "Cell surface mesothelin on Nomo-1 by flow cytometry after GM6001", "format": "cell-based", "conditions": "Nomo-1 cells, GM6001 50 uM, 48 hours, vs DMSO control", "quoted_text": "Cell surface abundance and viability were measured by flow cytometry (FIG. 2A) and shed MSLN was quantified by ELISA (FIG. 2B). […] Data presented are mean tumor specific lysis+/−standard deviation from 3 technical replicates at indicated E:T ratios for 3 independent experiments. […] Secreted levels of IFN-g (left panel) and TNF-a (right panel) were measured after 8 hours of T cell/AML co-culture at E:T 10:1 by ELISA. Data presented are mean+/−standard deviation from 3 technical replicates. Statistical significance was determined by unpaired Student's t test, assuming unequal variances. p<0.05(*), p<0.005(**), p<0.0005(***).\nNomo-1 and Kasumi-1 were obtained from ATCC and maintained in RPMI with FBS (10% for Nomo-1, 20% for Kasumi-1) and L-glutamine (2 mM). […] The Kasumi-1 MSLN+ cell line was engineered by transducing Kasumi-1 cells with a lentivirus encoding MSLN driven by the ELF1a promoter.\nFor in vivo CAR T study, Nomo-1 cells, which express endogenous level of MSLN, and Kasumi-1 cells engineered to express MSLN with a lentivirus construct (Kasumi-1 MSLN+) were transplanted into NSG mice. Mock transduced MSLN-directed CAR T cells were infused 1 week (Nomo-1) and 2 weeks (Kasumi-1 MSLN+) following leukemic cell injection. Leukemic burden was measured by bioluminescence IVIS imaging weekly."}, "Nomo-1 cells": {"test_system": "Nomo-1 cells", "test": "Viability of Nomo-1 cells after GM6001 without CAR T cells", "format": "cell-based", "conditions": "GM6001 treatment, data not shown", "description": "FIGS. 2A-2D. […] FIGS. 2A-2B. […] FIG. 2C. […] FIG. 2D.\nAML cell lines and GM6001 treatment."}},
  "data": [
    {"smiles": "CNC(=O)[C@H](Cc1c[nH]c2ccccc12)NC(=O)[C@@H](CC(=O)NO)CC(C)C", "note": "[GM6001]", "values": [
      {"measurement": "level of cell surface mesothelin", "setting": "[1]", "value": "increased"},
      {"measurement": "cell viability of Nomo-1 cells in the absence of CAR T cells", "setting": "Nomo-1 cells", "value": "did not significantly impact"}
    ]}
  ]
}
